Blank lines part the entries; values can stand above or below the compound they belong to.
How the values were obtained:
[1] = target: Calcium/calmodulin-dependent protein kinase type 1 (Homo sapiens) (UniProt Q14012); assay: Selectivity interaction (KinomeScan (DiscoverX)) EUB0000607a CAMK1; settings: at 10 µM
[2] = test system: Phosphatidylinositol 4,5-bisphosphate 3-kinase catalytic subunit alpha isoform (Homo sapiens), P42336 [I800L]; settings: at 10 µM
[3] = target: 1-phosphatidylinositol 3-phosphate 5-kinase (Homo sapiens) (UniProt Q9Y2I7); assay: Selectivity interaction (ActivX KiNativ screen (ex vivo kinase selectivity in human PBMCs)) EUB0001619a PIKFYVE; format: cell-based; settings: PBMC, at 1 µM
[4] = target: T1, cGMP-dependent protein kinase 2 (Homo sapiens) (UniProt Q13237); assay: Selectivity interaction (KinomeScan (DiscoverX)) EUB0001619a PRKG2; settings: at 1 µM
T1 sequence (whole entry): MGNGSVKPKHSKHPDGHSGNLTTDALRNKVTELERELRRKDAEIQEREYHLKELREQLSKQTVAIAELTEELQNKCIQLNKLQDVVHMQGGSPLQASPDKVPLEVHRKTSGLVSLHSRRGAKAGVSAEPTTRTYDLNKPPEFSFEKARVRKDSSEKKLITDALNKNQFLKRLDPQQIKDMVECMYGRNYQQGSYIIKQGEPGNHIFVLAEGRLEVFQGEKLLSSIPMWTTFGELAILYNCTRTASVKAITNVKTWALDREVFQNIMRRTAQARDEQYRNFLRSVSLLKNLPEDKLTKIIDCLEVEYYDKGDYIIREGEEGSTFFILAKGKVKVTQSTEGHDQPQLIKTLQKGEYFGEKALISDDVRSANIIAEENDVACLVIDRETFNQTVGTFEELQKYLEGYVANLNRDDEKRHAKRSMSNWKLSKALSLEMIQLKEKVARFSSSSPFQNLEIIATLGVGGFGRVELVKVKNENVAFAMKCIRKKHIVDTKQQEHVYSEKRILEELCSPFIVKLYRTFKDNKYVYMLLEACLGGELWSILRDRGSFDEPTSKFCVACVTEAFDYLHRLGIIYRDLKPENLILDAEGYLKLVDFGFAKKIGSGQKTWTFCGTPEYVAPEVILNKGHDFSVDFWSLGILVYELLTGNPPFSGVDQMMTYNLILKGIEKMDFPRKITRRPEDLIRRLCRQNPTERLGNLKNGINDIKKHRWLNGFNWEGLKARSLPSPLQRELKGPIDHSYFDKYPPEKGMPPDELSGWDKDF

[5] = target: Serine/threonine-protein kinase 10 (Homo sapiens) (UniProt O94804); assay: Selectivity interaction (ActivX KiNativ screen (ex vivo kinase selectivity in human PBMCs)) EUB0001619a STK10; format: cell-based; settings: PBMC, at 1 µM
[6] = test system: Tyrosine-protein kinase ABL1 (Homo sapiens), P00519 [T315I]; settings: at 10 µM
[7] = target: T2, Mitogen-activated protein kinase kinase kinase 15 (Homo sapiens) (UniProt Q6ZN16); settings: at 10 µM
T2 sequence (whole entry): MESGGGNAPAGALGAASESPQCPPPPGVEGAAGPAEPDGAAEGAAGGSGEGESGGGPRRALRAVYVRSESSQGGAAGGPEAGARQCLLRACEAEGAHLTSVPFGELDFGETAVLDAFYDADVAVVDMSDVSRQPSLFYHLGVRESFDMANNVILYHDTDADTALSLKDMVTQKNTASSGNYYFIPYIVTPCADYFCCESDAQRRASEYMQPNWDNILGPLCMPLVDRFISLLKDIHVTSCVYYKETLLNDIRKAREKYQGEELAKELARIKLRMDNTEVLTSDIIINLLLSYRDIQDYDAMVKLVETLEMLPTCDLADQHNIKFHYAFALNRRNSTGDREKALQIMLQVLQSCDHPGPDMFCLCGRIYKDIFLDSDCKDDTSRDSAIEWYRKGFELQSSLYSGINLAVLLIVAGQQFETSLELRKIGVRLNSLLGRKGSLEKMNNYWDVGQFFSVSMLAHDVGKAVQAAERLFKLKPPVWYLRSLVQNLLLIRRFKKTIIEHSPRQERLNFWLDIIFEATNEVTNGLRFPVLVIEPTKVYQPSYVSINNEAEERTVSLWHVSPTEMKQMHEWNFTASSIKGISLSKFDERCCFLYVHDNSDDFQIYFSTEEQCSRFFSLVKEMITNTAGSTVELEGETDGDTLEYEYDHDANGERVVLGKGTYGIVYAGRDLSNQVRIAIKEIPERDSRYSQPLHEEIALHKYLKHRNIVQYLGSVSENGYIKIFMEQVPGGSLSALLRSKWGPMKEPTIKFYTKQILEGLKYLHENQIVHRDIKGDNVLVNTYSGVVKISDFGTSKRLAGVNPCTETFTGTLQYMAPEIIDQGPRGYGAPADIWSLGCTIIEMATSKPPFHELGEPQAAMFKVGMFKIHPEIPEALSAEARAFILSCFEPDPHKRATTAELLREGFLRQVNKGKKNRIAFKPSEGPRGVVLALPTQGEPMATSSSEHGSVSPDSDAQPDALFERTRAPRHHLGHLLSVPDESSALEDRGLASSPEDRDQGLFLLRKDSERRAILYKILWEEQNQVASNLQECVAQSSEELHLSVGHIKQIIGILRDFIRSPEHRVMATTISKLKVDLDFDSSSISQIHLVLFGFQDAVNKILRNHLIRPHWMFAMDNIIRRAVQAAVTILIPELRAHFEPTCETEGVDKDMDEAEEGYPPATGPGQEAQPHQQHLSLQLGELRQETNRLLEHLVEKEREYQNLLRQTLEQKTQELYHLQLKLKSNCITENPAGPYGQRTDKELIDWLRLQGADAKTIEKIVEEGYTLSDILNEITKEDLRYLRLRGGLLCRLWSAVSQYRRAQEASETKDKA

[8] = target: Tyrosine-protein kinase Lyn (Homo sapiens, UniProt P07948); assay: Selectivity interaction (ActivX KiNativ screen (kinase selectivity in THP-1 cell lysates)) EUB0000639a LYN; format: subcellular; settings: lysate, at 0.2 µM
[9] = target: Dual specificity mitogen-activated protein kinase kinase 1 (Homo sapiens, UniProt Q02750); assay: Selectivity interaction (Kinase panel (Invitrogen)) EUB0000639a MAP2K1; settings: at 200 nM
[10] = target: Dual specificity mitogen-activated protein kinase kinase 2 (Homo sapiens) (UniProt P36507); assay: Selectivity interaction (ActivX KiNativ screen (kinase selectivity in THP-1 cell lysates)) EUB0000639a MAP2K2; format: subcellular; settings: lysate, at 0.01 µM
[11] = target: Serine/threonine-protein kinase 24 (Homo sapiens) (UniProt Q9Y6E0); assay: Selectivity interaction (KinomeScan (DiscoverX)) EUB0001049a STK24; settings: at 1 µM
D(2) dopamine receptor = D(2) dopamine receptor (Homo sapiens, UniProt P14416); assay: Selectivity interaction (Panel of kinases, GPCRs, ion channels and transporters (enzymatic assay)) EUB0000266bCl DRD2
[12] = target: RAC-alpha serine/threonine-protein kinase (Homo sapiens, UniProt P31749); assay: Selectivity interaction (KinomeScan (DiscoverX)) EUB0000666a AKT1; settings: at 10 µM
RAC-alpha serine/threonine-protein kinase, sequence (P31749 whole entry): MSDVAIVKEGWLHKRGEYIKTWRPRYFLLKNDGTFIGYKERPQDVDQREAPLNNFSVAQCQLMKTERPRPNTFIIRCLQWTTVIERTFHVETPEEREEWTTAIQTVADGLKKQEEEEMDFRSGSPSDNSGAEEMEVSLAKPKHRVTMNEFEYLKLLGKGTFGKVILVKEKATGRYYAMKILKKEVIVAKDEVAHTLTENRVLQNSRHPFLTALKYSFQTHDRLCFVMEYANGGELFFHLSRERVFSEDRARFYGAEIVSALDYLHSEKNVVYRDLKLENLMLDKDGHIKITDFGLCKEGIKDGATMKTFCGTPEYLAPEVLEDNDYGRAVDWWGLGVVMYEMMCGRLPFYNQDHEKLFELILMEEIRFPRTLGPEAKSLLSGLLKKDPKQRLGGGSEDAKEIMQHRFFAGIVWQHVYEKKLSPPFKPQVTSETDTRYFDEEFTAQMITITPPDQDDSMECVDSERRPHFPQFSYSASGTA

D(2) dopamine receptor, sequence (P14416 whole entry): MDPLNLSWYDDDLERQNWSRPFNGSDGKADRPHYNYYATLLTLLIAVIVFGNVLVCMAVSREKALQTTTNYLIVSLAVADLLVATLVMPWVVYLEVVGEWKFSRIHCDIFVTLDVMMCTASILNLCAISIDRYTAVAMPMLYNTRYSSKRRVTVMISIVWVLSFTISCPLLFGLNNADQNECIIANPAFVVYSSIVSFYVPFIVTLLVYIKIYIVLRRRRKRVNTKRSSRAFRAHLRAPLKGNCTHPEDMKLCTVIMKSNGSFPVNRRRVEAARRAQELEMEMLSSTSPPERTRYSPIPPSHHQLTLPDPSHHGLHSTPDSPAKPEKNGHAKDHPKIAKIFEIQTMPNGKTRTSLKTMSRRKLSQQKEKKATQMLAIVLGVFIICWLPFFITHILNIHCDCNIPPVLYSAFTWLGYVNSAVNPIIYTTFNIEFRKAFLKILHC
1-phosphatidylinositol 3-phosphate 5-kinase (Homo sapiens), sequence (Q9Y2I7 whole entry): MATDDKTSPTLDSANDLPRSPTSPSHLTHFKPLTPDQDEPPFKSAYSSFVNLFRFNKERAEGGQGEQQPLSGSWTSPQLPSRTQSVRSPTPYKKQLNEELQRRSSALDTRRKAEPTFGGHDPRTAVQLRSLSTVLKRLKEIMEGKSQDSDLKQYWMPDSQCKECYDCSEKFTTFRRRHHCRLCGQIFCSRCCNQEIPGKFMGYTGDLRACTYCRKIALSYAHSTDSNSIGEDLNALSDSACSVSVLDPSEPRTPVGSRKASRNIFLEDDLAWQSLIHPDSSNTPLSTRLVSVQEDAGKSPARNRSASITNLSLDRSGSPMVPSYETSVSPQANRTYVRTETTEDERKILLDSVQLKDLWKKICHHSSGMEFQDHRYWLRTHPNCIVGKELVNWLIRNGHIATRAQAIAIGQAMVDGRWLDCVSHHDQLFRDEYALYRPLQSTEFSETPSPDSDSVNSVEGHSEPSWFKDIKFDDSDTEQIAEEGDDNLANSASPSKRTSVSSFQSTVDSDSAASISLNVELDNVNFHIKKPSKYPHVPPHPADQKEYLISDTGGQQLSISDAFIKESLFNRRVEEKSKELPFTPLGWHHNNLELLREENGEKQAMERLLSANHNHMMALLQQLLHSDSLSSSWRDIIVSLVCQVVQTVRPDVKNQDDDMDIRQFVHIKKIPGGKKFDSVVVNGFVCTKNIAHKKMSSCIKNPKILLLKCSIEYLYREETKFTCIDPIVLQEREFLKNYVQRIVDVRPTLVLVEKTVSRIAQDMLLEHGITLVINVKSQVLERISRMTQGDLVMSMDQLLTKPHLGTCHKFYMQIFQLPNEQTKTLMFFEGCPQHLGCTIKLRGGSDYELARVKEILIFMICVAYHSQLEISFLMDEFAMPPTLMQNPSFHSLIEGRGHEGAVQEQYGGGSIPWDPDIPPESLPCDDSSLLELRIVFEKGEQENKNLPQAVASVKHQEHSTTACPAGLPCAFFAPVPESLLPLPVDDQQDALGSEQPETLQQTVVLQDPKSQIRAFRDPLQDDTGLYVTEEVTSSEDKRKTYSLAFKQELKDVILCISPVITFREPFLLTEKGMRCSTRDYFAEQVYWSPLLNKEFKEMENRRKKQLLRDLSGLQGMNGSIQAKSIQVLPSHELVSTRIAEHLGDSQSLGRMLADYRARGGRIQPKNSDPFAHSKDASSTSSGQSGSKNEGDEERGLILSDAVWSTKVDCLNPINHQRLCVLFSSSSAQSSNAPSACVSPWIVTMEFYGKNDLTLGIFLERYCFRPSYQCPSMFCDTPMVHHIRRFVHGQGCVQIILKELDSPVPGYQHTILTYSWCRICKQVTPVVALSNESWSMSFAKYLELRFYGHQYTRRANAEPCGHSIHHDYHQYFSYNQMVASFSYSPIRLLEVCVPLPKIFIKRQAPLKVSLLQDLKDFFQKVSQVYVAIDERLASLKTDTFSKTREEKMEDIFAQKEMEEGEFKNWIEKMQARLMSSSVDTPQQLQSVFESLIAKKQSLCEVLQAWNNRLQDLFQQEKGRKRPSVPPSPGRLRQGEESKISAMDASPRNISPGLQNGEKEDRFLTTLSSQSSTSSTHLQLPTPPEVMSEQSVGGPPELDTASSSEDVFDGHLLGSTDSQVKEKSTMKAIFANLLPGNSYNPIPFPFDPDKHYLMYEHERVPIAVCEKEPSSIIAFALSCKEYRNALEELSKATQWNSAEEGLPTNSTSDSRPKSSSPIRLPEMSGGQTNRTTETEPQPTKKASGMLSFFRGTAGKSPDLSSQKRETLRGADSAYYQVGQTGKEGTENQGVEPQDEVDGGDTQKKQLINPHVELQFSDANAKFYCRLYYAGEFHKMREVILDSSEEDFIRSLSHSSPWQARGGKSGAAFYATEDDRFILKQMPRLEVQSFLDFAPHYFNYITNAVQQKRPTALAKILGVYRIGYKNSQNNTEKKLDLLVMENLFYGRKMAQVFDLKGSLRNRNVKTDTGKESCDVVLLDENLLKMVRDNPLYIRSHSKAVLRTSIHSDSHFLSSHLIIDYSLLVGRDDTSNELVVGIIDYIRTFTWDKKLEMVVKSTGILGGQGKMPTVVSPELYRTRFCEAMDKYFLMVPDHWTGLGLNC
Dual specificity mitogen-activated protein kinase kinase 2 (Homo sapiens), sequence (P36507 whole entry): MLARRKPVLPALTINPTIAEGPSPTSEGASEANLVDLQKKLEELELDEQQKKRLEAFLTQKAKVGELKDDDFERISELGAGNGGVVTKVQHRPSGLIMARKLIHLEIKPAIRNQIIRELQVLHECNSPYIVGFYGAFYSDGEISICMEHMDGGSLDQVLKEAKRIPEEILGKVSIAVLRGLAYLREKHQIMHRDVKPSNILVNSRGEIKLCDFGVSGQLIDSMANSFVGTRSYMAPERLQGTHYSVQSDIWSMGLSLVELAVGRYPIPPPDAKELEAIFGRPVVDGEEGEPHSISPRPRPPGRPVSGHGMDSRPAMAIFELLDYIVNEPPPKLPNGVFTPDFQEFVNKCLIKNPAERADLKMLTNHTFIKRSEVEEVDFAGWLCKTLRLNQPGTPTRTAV
Dual specificity mitogen-activated protein kinase kinase 1, sequence (Q02750 whole entry): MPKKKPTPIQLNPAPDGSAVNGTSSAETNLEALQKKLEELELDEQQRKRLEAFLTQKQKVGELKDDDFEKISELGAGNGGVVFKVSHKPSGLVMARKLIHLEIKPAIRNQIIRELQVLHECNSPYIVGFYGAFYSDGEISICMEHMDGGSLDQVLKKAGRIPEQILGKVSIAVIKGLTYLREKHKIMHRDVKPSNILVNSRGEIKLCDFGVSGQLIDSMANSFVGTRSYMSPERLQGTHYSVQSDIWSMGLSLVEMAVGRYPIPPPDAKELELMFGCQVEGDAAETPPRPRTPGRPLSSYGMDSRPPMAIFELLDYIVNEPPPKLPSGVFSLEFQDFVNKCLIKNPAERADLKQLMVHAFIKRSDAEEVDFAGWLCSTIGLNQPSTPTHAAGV
Calcium/calmodulin-dependent protein kinase type 1 (Homo sapiens), sequence (Q14012 whole entry, looked up, canonical isoform): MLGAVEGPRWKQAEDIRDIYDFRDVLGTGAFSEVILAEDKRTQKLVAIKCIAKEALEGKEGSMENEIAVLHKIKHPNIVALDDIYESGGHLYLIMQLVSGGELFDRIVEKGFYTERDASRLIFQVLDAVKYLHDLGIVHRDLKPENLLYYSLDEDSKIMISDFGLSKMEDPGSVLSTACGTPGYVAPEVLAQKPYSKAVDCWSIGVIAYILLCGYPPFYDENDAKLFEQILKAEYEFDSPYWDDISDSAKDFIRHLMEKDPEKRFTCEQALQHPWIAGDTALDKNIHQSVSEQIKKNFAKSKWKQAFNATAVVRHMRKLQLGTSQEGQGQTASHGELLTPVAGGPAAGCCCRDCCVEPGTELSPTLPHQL
Serine/threonine-protein kinase 24 (Homo sapiens), sequence (Q9Y6E0 whole entry, looked up): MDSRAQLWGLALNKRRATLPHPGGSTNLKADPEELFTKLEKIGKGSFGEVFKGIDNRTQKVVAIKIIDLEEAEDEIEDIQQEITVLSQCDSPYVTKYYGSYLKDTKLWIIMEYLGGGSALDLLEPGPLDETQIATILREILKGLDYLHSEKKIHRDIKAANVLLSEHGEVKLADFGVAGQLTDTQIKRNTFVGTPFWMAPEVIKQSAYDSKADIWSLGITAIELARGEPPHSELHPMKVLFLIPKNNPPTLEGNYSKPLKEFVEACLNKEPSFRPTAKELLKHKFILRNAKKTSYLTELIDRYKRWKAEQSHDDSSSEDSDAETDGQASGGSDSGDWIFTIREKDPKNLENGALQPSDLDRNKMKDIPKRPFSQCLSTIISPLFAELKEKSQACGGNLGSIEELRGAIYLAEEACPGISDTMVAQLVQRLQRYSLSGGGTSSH

Compound: CNC(=O)Nc1ccc(-c2nc(N3CC4CCC(C3)O4)c3cnn(C4CCC5(CC4)OCCO5)c3n2)cc1
% of control [1]: 93%
% of control [2]: 5%

Compound: N#Cc1cccc(-c2c[nH]c3ncnc(N4CCOCC4)c23)c1
% of inhibition [3]: 22%
% of control [4]: 100%
% of inhibition [5]: 60%

Compound: Cc1cc([C@@H](C)Nc2ccccc2C(=O)O)c2nc(N3CCOCC3)cc(=O)n2c1 [AZD-6482]
% of control [6]: 70%
% of control [7]: 87%

% of inhibition [8]: 0%
% of inhibition [9]: 24.2%
% of inhibition [10]: -2%
Compound: CC[C@@H]1[C@H](F)C(=O)N[C@@H]1COc1nccc2cc(C(N)=O)c(OC)cc12 [ZIMLOVISERTIB]

Compound: COc1cc(Nc2nc(C)cc(-c3cnn4nc(OC)ccc34)n2)cc(C(F)(F)F)c1
% of control [11]: 76%

pXC50 (D(2) dopamine receptor): < 4 M
Compound: CCn1c(-c2nc3cc(C(=O)N4CCCC(N)C4)ccc3n2C)cc2ccccc21 (stereo not drawn)

Compound: O=C(NOC[C@H](O)CO)c1ccc(F)c(F)c1Nc1ccc(I)cc1F
% of control [12]: 81%
